The values that follow come from patent US10072011B2, “Substituted bridged urea analogs as sirtuin modulators” (GlaxoSmithKline Intellectual Property (No.2) Limited, priority 2014, dated 2018).

For the assay, the target named is T1, SIRT1 (Homo sapiens, UniProt Q96EB6).
T1 sequence (Q96EB6 1-747): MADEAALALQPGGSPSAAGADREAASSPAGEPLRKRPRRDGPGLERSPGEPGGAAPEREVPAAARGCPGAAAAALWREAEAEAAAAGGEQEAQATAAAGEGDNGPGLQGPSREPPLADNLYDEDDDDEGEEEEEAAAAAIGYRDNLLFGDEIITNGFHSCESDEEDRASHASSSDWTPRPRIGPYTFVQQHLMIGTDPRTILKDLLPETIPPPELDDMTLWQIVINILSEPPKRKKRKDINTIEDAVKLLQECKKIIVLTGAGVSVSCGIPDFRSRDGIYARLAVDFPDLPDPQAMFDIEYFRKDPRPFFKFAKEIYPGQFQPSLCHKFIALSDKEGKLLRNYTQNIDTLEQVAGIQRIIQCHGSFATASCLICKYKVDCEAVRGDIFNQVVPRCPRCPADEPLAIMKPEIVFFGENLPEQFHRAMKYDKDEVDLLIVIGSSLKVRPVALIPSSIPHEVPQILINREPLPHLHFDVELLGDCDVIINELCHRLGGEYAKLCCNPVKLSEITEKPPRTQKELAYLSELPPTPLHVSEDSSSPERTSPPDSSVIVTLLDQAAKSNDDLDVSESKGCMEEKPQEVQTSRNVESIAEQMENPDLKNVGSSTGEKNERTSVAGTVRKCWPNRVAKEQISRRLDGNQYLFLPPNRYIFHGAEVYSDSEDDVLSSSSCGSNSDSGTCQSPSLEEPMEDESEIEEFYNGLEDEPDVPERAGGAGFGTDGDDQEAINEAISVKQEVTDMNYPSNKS
Briefly: Trp mass spectrometry assay of SIRT1 activation (Ac-R-H-K-K(Ac)-W-NH2 peptide). Type of assay: biochemical. To be noted: for Emax: 25 min, read-out: TRP MAX RESP (percent maximum fold activation). In a few lines:
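Mass spectrometry read-out (OAADPR formed, or deacetylated Trp peptide) after a 25 min NAD-dependent deacetylation by E. coli-expressed His-SIRT1, stopped with formic acid.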

The mark [1] stands for this setting: Trp peptide 0.5 μM, 120 μM βNAD+, 10 nM SIRT1, 25 min at 25° C., relative to control (100%).
Where [2] appears, read: Trp peptide 0.5 μM, 120 μM βNAD+, 10 nM SIRT1, 25 min at 25° C.

Read-outs that look alike come from different tables or passages of the source.

`C[C@@H](NC(=O)c1ccc2c(n1)N(C(=O)Nc1cc(C(N)=O)ccn1)[C@H]1CCN2C1)C(F)(F)F` [Example 137, (4S)—N5-(4-carbamoylpyridin-2-yl)-N7-((R)-1,1,1-trifluoropropan-2-yl)-3,4-dihydro-1,4-methanopyrido[2,3-b][1,4]diazepine-5,7(2H)-dicarboxamide]: under setting [1], the Emax was greater than 150%. The “TRP Activity (EC1.5, concentration of test compound that results in 150% activation of SIRT1)” value under setting [2] is on record as “A (EC1.5<1 μM)”.

For the compound `C[C@@H](NC(=O)c1ccc2c(n1)N(C(=O)Nc1cc3c(cn1)OCCC3)[C@H]1CCN2C1)C(F)(F)F` [Example 138, (4S)—N5-(3,4-dihydro-2H-pyrano[2,3-c]pyridin-6-yl)-N7-((R)-1,1,1-trifluoropropan-2-yl)-3,4-dihydro-1,4-methanopyrido[2,3-b][1,4]diazepine-5,7(2H)-dicarboxamide], the Emax under setting [1] was greater than 150%. Under setting [2], the “TRP Activity (EC1.5, concentration of test compound that results in 150% activation of SIRT1)” value is reported as “A (EC1.5<1 μM)”.

For the compound `Cc1ccc2c(NC(=O)N3c4nc(C(=O)N[C@H](CO)C(F)(F)F)ccc4N4CC[C@H]3C4)n[nH]c2n1` [Example 139, (4S)—N5-(6-methyl-1H-pyrazolo[3,4-b]pyridin-3-yl)-N7-((R)-1,1,1-trifluoro-3-hydroxypropan-2-yl)-3,4-dihydro-1,4-methanopyrido[2,3-b][1,4]diazepine-5,7(2H)-dicarboxamide], the Emax under setting [1] is greater than 150%. Besides, the “TRP Activity (EC1.5, concentration of test compound that results in 150% activation of SIRT1)” value under setting [2] is given as “A (EC1.5<1 μM)”.

As for `O=C(NCC(F)(F)F)c1ccc2c(n1)N(C(=O)Nc1ncc3[nH]ccc3n1)[C@H]1CCN2C1` [Example 140, (4S)—N5-(5H-pyrrolo[3,2-d]pyrimidin-2-yl)-N7-(2,2,2-trifluoroethyl)-3,4-dihydro-1,4-methanopyrido[2,3-b][1,4]diazepine-5,7(2H)-dicarboxamide], the Emax was greater than 150%. The “TRP Activity (EC1.5, concentration of test compound that results in 150% activation of SIRT1)” value under setting [2] is “A (EC1.5<1 μM)”.

Turning to `C[C@@H](NC(=O)c1ccc2c(n1)N(C(=O)Nc1cccc(OC[C@H](O)CO)n1)[C@H]1CCN2C1)C(F)(F)F` [Example 141, (4S)—N5-(6-((R)-2,3-dihydroxypropoxy)pyridin-2-yl)-N7-((R)-1,1,1-trifluoropropan-2-yl)-3,4-dihydro-1,4-methanopyrido[2,3-b][1,4]diazepine-5,7(2H)-dicarboxamide], the Emax under setting [1] is greater than 150%. In addition, under setting [2], the “TRP Activity (EC1.5, concentration of test compound that results in 150% activation of SIRT1)” value is listed as “A (EC1.5<1 μM)”.

In the case of `C#C[C@H](C)NC(=O)c1ccc2c(n1)N(C(=O)Nc1ccccn1)[C@H]1CCN2C1` [Example 142, (4S)—N7-((S)-but-3-yn-2-yl)-N5-(pyridin-2-yl)-3,4-dihydro-1,4-methanopyrido[2,3-b][1,4]diazepine-5,7(2H)-dicarboxamide], the Emax under setting [1] is greater than 150%. Also, under setting [2], the “TRP Activity (EC1.5, concentration of test compound that results in 150% activation of SIRT1)” value is listed as “A (EC1.5<1 μM)”.

On to `NC(=O)c1ccc(NC(=O)N2c3nc(C(=O)NCC(F)(F)F)ccc3N3CC[C@H]2C3)nc1` [Example 143, (4S)—N5-(5-carbamoylpyridin-2-yl)-N7-(2,2,2-trifluoroethyl)-3,4-dihydro-1,4-methanopyrido[2,3-b][1,4]diazepine-5,7(2H)-dicarboxamide], for which the Emax under setting [1] is greater than 150%. Moreover, the “TRP Activity (EC1.5, concentration of test compound that results in 150% activation of SIRT1)” value under setting [2] is reported as “A (EC1.5<1 μM)”.

With `C[C@@H](NC(=O)c1ccc2c(n1)N(C(=O)Nc1cccc(OC[C@@H](O)CO)n1)[C@H]1CCN2C1)C(F)(F)F` [Example 144, (4S)—N5-(6-((S)-2,3-dihydroxypropoxy)pyridin-2-yl)-N7-((R)-1,1,1-trifluoropropan-2-yl)-3,4-dihydro-1,4-methanopyrido[2,3-b][1,4]diazepine-5,7(2H)-dicarboxamide], the Emax under setting [1] is greater than 150%. In addition, under setting [2], the “TRP Activity (EC1.5, concentration of test compound that results in 150% activation of SIRT1)” value is “A (EC1.5<1 μM)”.

`O=C(NCC1CC1)c1ccc2c(n1)N(C(=O)Nc1cc3c(cn1)OCCC3)[C@H]1CCN2C1` [Example 145, (4S)—N7-(cyclopropylmethyl)-N5-(3,4-dihydro-2H-pyrano[2,3-c]pyridin-6-yl)-3,4-dihydro-1,4-methanopyrido[2,3-b][1,4]diazepine-5,7(2H)-dicarboxamide]: under setting [1], the Emax is greater than 150%. In addition, the “TRP Activity (EC1.5, concentration of test compound that results in 150% activation of SIRT1)” value under setting [2] is “A (EC1.5<1 μM)”.

On to `CS(=O)(=O)c1ccc(NC(=O)N2c3nc(C(=O)NCC(F)(F)F)ccc3N3CC[C@H]2C3)nc1` [Example 146, (4S)—N5-(5-(methylsulfonyl)pyridin-2-yl)-N7-(2,2,2-trifluoroethyl)-3,4-dihydro-1,4-methanopyrido[2,3-b][1,4]diazepine-5,7(2H)-dicarboxamide], for which the Emax under setting [1] is greater than 150%. Also, the “TRP Activity (EC1.5, concentration of test compound that results in 150% activation of SIRT1)” value under setting [2] is “B (EC1.5 1-25 μM)”.

In the case of `C[C@@H](NC(=O)c1ccc2c(n1)N(C(=O)Nc1ncc3[nH]ccc3n1)[C@H]1CCN2C1)C(F)(F)F` [Example 147, (4S)—N5-(5H-pyrrolo[3,2-d]pyrimidin-2-yl)-N7-((R)-1,1,1-trifluoropropan-2-yl)-3,4-dihydro-1,4-methanopyrido[2,3-b][1,4]diazepine-5,7(2H)-dicarboxamide], the Emax under setting [1] was greater than 150%. The “TRP Activity (EC1.5, concentration of test compound that results in 150% activation of SIRT1)” value under setting [2] was “A (EC1.5<1 μM)”.

Turning to `Cc1ncc(-c2ccnc(NC(=O)N3c4nc(C(=O)N[C@H](C)C(F)(F)F)ccc4N4CC[C@H]3C4)c2)s1` [Example 148, (4S)—N5-(4-(2-methylthiazol-5-yl)pyridin-2-yl)-N7-((R)-1,1,1-trifluoropropan-2-yl)-3,4-dihydro-1,4-methanopyrido[2,3-b][1,4]diazepine-5,7(2H)-dicarboxamide], the Emax under setting [1] is greater than 150%. For the same compound, under setting [2], the “TRP Activity (EC1.5, concentration of test compound that results in 150% activation of SIRT1)” value is recorded as “A (EC1.5<1 μM)”.

Turning to `C[C@@H](NC(=O)c1ccc2c(n1)N(C(=O)Nc1ccc(OC[C@H](O)CO)cn1)[C@H]1CCN2C1)C(F)(F)F` [Example 149, (4S)—N5-(5-((R)-2,3-dihydroxypropoxy)pyridin-2-yl)-N7-((R)-1,1,1-trifluoropropan-2-yl)-3,4-dihydro-1,4-methanopyrido[2,3-b][1,4]diazepine-5,7(2H)-dicarboxamide], the Emax under setting [1] is greater than 150%. For the same compound, the “TRP Activity (EC1.5, concentration of test compound that results in 150% activation of SIRT1)” value under setting [2] is given as “A (EC1.5<1 μM)”.

Take `CNC(=O)c1ccnc(NC(=O)N2c3nc(C(=O)N[C@H](C)C(F)(F)F)ccc3N3CC[C@H]2C3)c1` [Example 151, (4S)—N5-(4-(methylcarbamoyl)pyridin-2-yl)-N7-((R)-1,1,1-trifluoropropan-2-yl)-3,4-dihydro-1,4-methanopyrido[2,3-b][1,4]diazepine-5,7(2H)-dicarboxamide]: the Emax under setting [1] was greater than 150%. The “TRP Activity (EC1.5, concentration of test compound that results in 150% activation of SIRT1)” value under setting [2] is “A (EC1.5<1 μM)”.

On to `C[C@@H](NC(=O)c1ccc2c(n1)N(C(=O)Nc1cc(C(=O)NN)ccn1)[C@H]1CCN2C1)C(F)(F)F` [Example 152, (4S)—N5-(4-(hydrazinecarbonyl)pyridin-2-yl)-N7-((R)-1,1,1-trifluoropropan-2-yl)-3,4-dihydro-1,4-methanopyrido[2,3-b][1,4]diazepine-5,7(2H)-dicarboxamide], for which the Emax under setting [1] is greater than 150%. Also, the “TRP Activity (EC1.5, concentration of test compound that results in 150% activation of SIRT1)” value under setting [2] is “A (EC1.5<1 μM)”.

For the compound `C[C@@H](NC(=O)c1ccc2c(n1)N(C(=O)Nc1ccc(OC[C@@H](O)CO)cn1)[C@H]1CCN2C1)C(F)(F)F` [Example 153, (4S)—N5-(5-((S)-2,3-dihydroxypropoxy)pyridin-2-yl)-N7-((R)-1,1,1-trifluoropropan-2-yl)-3,4-dihydro-1,4-methanopyrido[2,3-b][1,4]diazepine-5,7(2H)-dicarboxamide], the Emax under setting [1] was greater than 150%. Also, the “TRP Activity (EC1.5, concentration of test compound that results in 150% activation of SIRT1)” value under setting [2] is “A (EC1.5<1 μM)”.

As for `C[C@@H](NC(=O)c1ccc2c(n1)N(C(=O)Nc1nccc(OC[C@@H](O)CO)n1)[C@H]1CCN2C1)C(F)(F)F` [Example 154, (4S)—N5-(4-((S)-2,3-dihydroxypropoxy)pyrimidin-2-yl)-N7-((R)-1,1,1-trifluoropropan-2-yl)-3,4-dihydro-1,4-methanopyrido[2,3-b][1,4]diazepine-5,7(2H)-dicarboxamide], the Emax under setting [1] was greater than 150%. Under setting [2], the “TRP Activity (EC1.5, concentration of test compound that results in 150% activation of SIRT1)” value was “A (EC1.5<1 μM)”.
